Measurements taken from PubChem BioAssay (NCI).
Where “and” joins values, the source holds several entries; their conditions need not be identical. Equal values may be shown once.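 The compound was tested at five concentrations on cells cultured in 96-well plates, with a 48-hour exposure period. Abbreviation: GI50, concentration required for 50% inhibition of growth. TGI marks complete inhibition of growth.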

Key:
Assay in all cases: growth of human tumour cells (NCI), 48 h
COLO 205 colon = system: COLO 205 colon
MCF7 breast = system: MCF7 breast
K-562 leukemia = system: K-562 leukemia
UACC-257 melanoma = system: UACC-257 melanoma
DU-145 prostate = system: DU-145 prostate
NCI-H226 lung = system: NCI-H226 lung
CCRF-CEM leukemia = system: CCRF-CEM leukemia
HCC-2998 colon = system: HCC-2998 colon
PC-3 prostate = system: PC-3 prostate
NCI-H460 lung = system: NCI-H460 lung

| SMILES | GI50 (COLO 205 colon) | TGI (COLO 205 colon) [µM] | GI50 (MCF7 breast) | TGI (MCF7 breast) [µM] | GI50 (K-562 leukemia) | TGI (K-562 leukemia) [µM] | GI50 (UACC-257 melanoma) | TGI (UACC-257 melanoma) | GI50 (DU-145 prostate) | TGI (DU-145 prostate) [µM] | GI50 (NCI-H226 lung) | TGI (NCI-H226 lung) | GI50 (CCRF-CEM leukemia) | TGI (CCRF-CEM leukemia) [µM] | GI50 (HCC-2998 colon) | TGI (HCC-2998 colon) | GI50 (PC-3 prostate) | TGI (PC-3 prostate) | GI50 (NCI-H460 lung) | TGI (NCI-H460 lung) |
| --- | --- | --- | --- | --- | --- | --- | --- | --- | --- | --- | --- | --- | --- | --- | --- | --- | --- | --- | --- | --- |
| COc1ccc(-c2cn[nH]c2-c2cc(OC)c(OC)c(OC)c2)cc1 | 19.7 nM | 0.0482 | 28.4 nM | 16.8 | < 10.9 nM | 26.7 | 558 nM | > 49.6 µM | 0.0392 µM | 2.67 | 0.111 µM | 20.6 µM | 0.0353 µM | > 42.6 | 0.0432 µM | 15 µM | 0.0309 µM | 59.8 µM | 35.1 nM | 10.5 µM |
| CCC(=C/[C@H](C)C/C=C/C(C)=C/[C@@H](C)C(=O)[C@@H](C)[C@H](O)[C@@H](C)CC)/C=C/[C@H]1OC(=O)C=C[C@@H]1C | < 10 nM | 0.345 | < 10 nM | 1.26 | < 10 nM |  |  |  | < 0.01 µM | 4.56 | < 0.01 µM | 0.554 µM | < 0.01 µM | 2.66 | < 0.01 µM | < 0.01 µM | < 0.01 µM | 3.04 µM | < 10 nM | 1.88 µM |
| Nc1ccccc1SC(CC(=O)c1ccccc1)c1cccc([N+](=O)[O-])c1 (centres undefined) | 19100 nM | 34.7 | 2600 nM | 18 | 3720 nM | 13.6 | 17100 nM | 31.1 µM | 14.7 µM | 28 | 17.1 µM | 35.2 µM | 16 µM | 50.8 | 17.3 µM | 31.3 µM | 12.5 µM | 25.5 µM | 19400 nM | 38.8 µM |
| O=C1CCCCN1c1ccccc1C#C/C=C\C#Cc1ccccc1C(F)(F)F | 11500 nM | > 50 | 2500 nM | > 50 | 1460 nM | 8.65 | 2720 nM | 18.3 µM | 1.68 µM | 8.5 | 1.28 µM | 3.7 µM | 1.56 µM | 3.96 | 0.951 µM | 2.5 µM | 2.32 µM | > 50 µM | 2160 nM | > 50 µM |
| CN1CC[C@@H](NC(=O)Nc2ccc(C#N)cc2)C[C@@H]1c1nc2ccccc2[nH]1 | > 80600 nM | > 100 | 98800 nM | > 100 | > 100000 nM | > 100 | > 100000 nM | > 100 µM | > 100 µM | > 100 | > 100 µM | > 100 µM | 97.4 µM | > 100 | > 41.3 µM | > 56.4 µM | > 100 µM | > 100 µM | > 100000 nM | > 100 µM |
| CN(C)CC1CC/C(=C\c2ccc(O)cc2)C1=O (centres undefined) |  | 3.77 |  | 4.56 |  | 5.76 |  | 11.3 µM |  | 29.6 |  | 25.6 µM |  | 3.53 |  | 25.5 µM |  | 20.2 µM |  | 37.2 µM |
| COc1ccc2nc(NC(=O)CSc3nnc4n3S(=O)(=O)c3ccccc3N4c3ccccc3)sc2c1 | > 100000 nM | > 100 | > 100000 nM | > 100 | > 100000 nM | > 100 | > 100000 nM | > 100 µM | > 100 µM | > 100 | > 100 µM | > 100 µM | > 100 µM | > 100 | > 100 µM | > 100 µM | > 100 µM | > 100 µM | > 100000 nM | > 100 µM |
| O=C1NC(=NC(CO)Cc2ccccc2)S/C1=C\c1ccc2ncccc2c1 (centres undefined) | 9230 nM and 1860 nM | > 25 | 7250 nM and 2980 nM | > 25 | 11200 nM and 3480 nM | > 25 | > 25000 nM and 5790 nM | > 25 µM and 19 µM | 18.8 µM and 2.62 µM | > 25 | > 25 µM and 5.55 µM | > 25 µM | 10.6 µM and 4.89 µM | > 25 | 13.9 µM and 8.02 µM | > 25 µM | > 25 µM and 3.9 µM | > 25 µM | 14600 nM and 3020 nM | > 25 µM |
| CC1=C2C(=C[C@@](C)(CO)[C@@H]2O)C(=O)[C@](C)(O)C12CC2 |  | 0.0218 |  | 0.0687 | 22.2 nM |  |  | 0.0308 µM and 0.0229 µM |  | 0.0597 |  | 0.0507 µM and 0.0611 µM | 0.342 µM |  |  | 0.0302 µM and 0.018 µM |  | 0.0661 µM and 0.0121 µM |  | 0.00701 µM and 0.0108 µM |
| COc1cc(/C(C#N)=C/c2nc3c(N4CCOCC4)nc(Cl)nc3n2C)cc(OC)c1OC | 12.4 nM | 0.0335 | < 11.5 nM | > 32.5 | < 10 nM | > 38.4 | 2450 nM | > 55.2 µM | < 0.01 µM | > 94.3 |  | 3.03 µM | < 0.01 µM | 0.668 | < 0.0157 µM | 2.19 µM | < 0.01 µM | 7.62 µM | < 10 nM | 5.37 µM |
| Cc1nnc(NC(=O)c2nc(S(=O)(=O)Cc3ccc(F)cc3)ncc2Cl)s1 | 1820 nM | 3.68 | 3290 nM | 17.6 | 1770 nM | 4.52 | 2100 nM | 7.61 µM | 9.44 µM | 21.7 | 6.27 µM | 25.7 µM | 1.52 µM | 3.65 | 13.4 µM | 29.4 µM | 10 µM | 22.9 µM | 17400 nM | 35.1 µM |
| CC(C)[C@@H]1C=C2CC[C@H]3[C@](C)(CN)CCC[C@]3(C)[C@H]2CC1 | 1700 nM | 3.17 | 1620 nM | 3.06 | 1960 nM | 4.36 | 2900 nM | 9.88 µM | 2.05 µM | 4.08 | 15.2 µM | 34.4 µM | 3.39 µM | 13.8 | 1.63 µM | 3.03 µM | 5.59 µM | 19.6 µM | 1800 nM | 3.34 µM |
| Nc1ccc(C2=NNC(=O)Cc3cc4c(cc32)OCCO4)cc1Cl | 2630 nM | 17.5 | 1990 nM | > 50 |  |  | 13300 nM | > 50 µM | 11.4 µM | > 50 | 8.12 µM | > 50 µM | 3.47 µM | > 50 | 3.73 µM | > 50 µM | 7.94 µM | > 50 µM | 1940 nM | > 50 µM |
